Columns and labels:
[1] = molecular target: Serotonin Uptake (Homo sapiens, UniProt P31645); assay: Inhibition of cellular Serotonin Uptake (cat. 364000); assay type: cell-based; settings: for IC50: cellular uptake, FIG. 61
Protocol: (§1) The methods employed have been adapted from the scientific literature to maximize reliability and reproducibility. Reference standards were run as an integral part of each assay to ensure the validity of the results obtained. Assays were performed under the conditions described below. The literature reference(s) for each assay are are listed below.
(§2) Where presented, IC50 values were determined by a non-linear, least squares regression analysis using Data Analysis Toolbox™ (MDL Information Systems, San Leandro, Calif., USA). Where inhibition constants (Ki) are presented, the Ki values were calculated using the equation of Cheng and Prusoff (Cheng, Y., Prusoff, W. H., Biochem. Pharmacol. 22:3099–3108, 1973) using the observed IC50 of the tested compound, the concentration of radioligand employed in the assay, and the historical values for the KD of the ligand (obtained experimentally at MDS Pharma Sarvices.

[2] = molecular target: T1, Norepinephrine Transporter (NET) (Homo sapiens, UniProt P23975); assay: Transporter, Norepinephrine (NET) radioligand binding (cat. 204410); settings: for Ki: human recombinant MDCK cells, [125I] RTI-55, Ki by Cheng and Prusoff, read-out: Ki, displacement of radioligand from Norepinephrine Transporter binding sites
T1 sequence (P23975 whole entry): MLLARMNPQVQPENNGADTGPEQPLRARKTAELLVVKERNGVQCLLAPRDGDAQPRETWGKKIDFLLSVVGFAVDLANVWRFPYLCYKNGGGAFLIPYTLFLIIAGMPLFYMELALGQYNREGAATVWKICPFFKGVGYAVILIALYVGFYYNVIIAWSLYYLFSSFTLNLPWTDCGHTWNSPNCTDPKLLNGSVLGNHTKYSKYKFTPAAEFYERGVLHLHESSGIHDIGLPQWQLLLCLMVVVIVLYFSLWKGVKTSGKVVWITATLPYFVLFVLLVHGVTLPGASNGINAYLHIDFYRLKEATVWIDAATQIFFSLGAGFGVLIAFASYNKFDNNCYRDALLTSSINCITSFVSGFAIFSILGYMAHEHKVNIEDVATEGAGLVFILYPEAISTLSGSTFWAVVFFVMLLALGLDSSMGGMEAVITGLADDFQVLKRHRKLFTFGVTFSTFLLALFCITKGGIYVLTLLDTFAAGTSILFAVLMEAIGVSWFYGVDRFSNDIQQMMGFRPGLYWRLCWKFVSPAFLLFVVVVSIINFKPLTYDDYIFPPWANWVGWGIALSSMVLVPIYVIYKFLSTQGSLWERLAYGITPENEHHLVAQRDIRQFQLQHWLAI
Protocol: as §1, with “employed in this study” for “employed”, “under” for “under the”, “conditions as” for “conditions”, “Literature” for “The literature”, “tabulated below and hereby incorporated by reference.” for “are listed below.”
as §2, with “ToolboX™” for “Toolbox™”, “Prusoff(Cheng,” for “Prusoff (Cheng,”, “22:30993108,” for “22:3099–3108,”, “Kd” for “KD”, “Services). Where presented, the Hill coefficient (nH), defining the slope of the competitive binding curve, was calculated using Data Analysis Toolbox™. […] Where IC50, Ki, and/or nH data are presented without Standard Error of the Mean (SEM), data are insufficient to be quantitative, and the values presented (Ki, IC50, nH) should be interpreted with caution.” for “Sarvices.”
as §2

[3] = system: other receptors; assay: Radioligand binding assay panel, other receptors (FIGS. 32 and 33); design: species or system human, mouse, guinea pig, syrian hamster, rat; settings: radioligand binding assays at 10 μM
Protocol: as §1, with “employed in this study” for “employed”, “under” for “under the”, “conditions as” for “conditions”, “Literature” for “The literature”, “tabulated below and hereby incorporated by reference.” for “are listed below.”

[4] = molecular target: Norepinephrine Uptake (Homo sapiens, UniProt P23975); assay: Inhibition of cellular Norepinephrine Uptake (cat. 302000); assay type: cell-based; settings: for IC50: cellular uptake, FIG. 61
Chain of Norepinephrine Uptake (P23975 whole entry): as above
Protocol: as §1, §2

[5] = molecular target: T2, Serotonin Transporter (SERT) (Homo sapiens, UniProt P31645); assay: Transporter, Serotonin (5-Hydroxytryptamine) (SERT) radioligand binding (cat. 274020); settings: for Ki: human recombinant HEK-293 cells, [125I] RTI-55, Ki by Cheng and Prusoff, read-out: Ki, displacement of radioligand from Serotonin Transporter binding sites
T2 sequence (P31645 whole entry): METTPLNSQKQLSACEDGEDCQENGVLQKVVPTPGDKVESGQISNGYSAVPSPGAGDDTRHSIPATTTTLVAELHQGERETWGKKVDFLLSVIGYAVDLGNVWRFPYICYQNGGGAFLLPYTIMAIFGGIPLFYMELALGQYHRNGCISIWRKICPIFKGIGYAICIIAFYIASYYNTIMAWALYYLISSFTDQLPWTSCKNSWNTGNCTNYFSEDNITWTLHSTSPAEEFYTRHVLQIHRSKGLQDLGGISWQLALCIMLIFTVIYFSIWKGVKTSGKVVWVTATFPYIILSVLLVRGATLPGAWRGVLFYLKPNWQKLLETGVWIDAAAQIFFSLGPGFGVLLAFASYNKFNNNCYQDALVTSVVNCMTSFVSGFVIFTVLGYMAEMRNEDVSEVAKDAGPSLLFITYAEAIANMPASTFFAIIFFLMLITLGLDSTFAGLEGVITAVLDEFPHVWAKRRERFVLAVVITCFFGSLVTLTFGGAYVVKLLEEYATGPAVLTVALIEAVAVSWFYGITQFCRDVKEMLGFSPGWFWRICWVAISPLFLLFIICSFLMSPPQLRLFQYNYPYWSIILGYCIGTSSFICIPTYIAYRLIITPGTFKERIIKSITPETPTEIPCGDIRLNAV
Protocol: as §1, with “employed in this study” for “employed”, “under” for “under the”, “conditions as” for “conditions”, “Literature” for “The literature”, “tabulated below and hereby incorporated by reference.” for “are listed below.”
as §2, with “ToolboX™” for “Toolbox™”, “Prusoff(Cheng,” for “Prusoff (Cheng,”, “22:30993108,” for “22:3099–3108,”, “Kd” for “KD”, “Services). Where presented, the Hill coefficient (nH), defining the slope of the competitive binding curve, was calculated using Data Analysis Toolbox™. […] Where IC50, Ki, and/or nH data are presented without Standard Error of the Mean (SEM), data are insufficient to be quantitative, and the values presented (Ki, IC50, nH) should be interpreted with caution.” for “Sarvices.”
as §2

[6] = Cytotoxicity, fluorometric assay run with the uptake assays (cat. 302100, 364100); assay type: cell-based; settings: at 10 μM
Description: • 118090. Crespi, C. L., Miller, V. P and Penman, B. W. (1997) Microtiter plate assays for inhibition of human, drug-metabolizing cytochromes P450. Anal Biochem 248(1): 188–190. • Gentest Technical Bulletin (Version 4.2: Revised 27 Sep. 2000) A high throughput method for measuring cytochrome P450 inhibition. Gentest Technical Bulletin (Version 4.2) Revised 27 Sep. 2000). • 204410. Galli, A., DeFelice, L., Duke, B.-J., Moore, K. Blakely, R. (1995) Sodium dependent norepinephrine induced currents in norephinephrine transporter transfected HEK293 cells blocked by cocaine and antidepressants. J. Exp. Biol. 198:2197–2212. • 212610. Eggerickx, D., Raspe, E. Bertrand, D., Vassart, G., Parmentier, M. (1992) Molecular cloning, functional expression and pharmacological characterization of a human bradykinin B2 receptor gene. Biochem Biophys Res Commun 187 (3): 1306–1313. • 214510. Schoemaker, H. and Langer, S. Z. (1985) [3H]Diltiazem binding to calcium channel antagonist recognition sites in rat cerebral cortex. Eur. J. Pharmacol. 111:273–277. • 274020. […] J. Biol. Chem. 269(10):7124–7130. • 302000. Galli, A., DeFelice, L. Duke, B.-J., and Blakely, R. (1995) Sodium dependent norephinephrine-induced currents in norepinephrine-transporter-transfected HEK-293 cells blocked by cocaine and antidepressants. J. Exp. Biol. 198:2197–2212. • 302100. Page, B., Page, M. and Noel, C. (1993) A new fluorometric assay for cytotoxicity measurements in vitro. […] 3:473–476, 1993. • 364000. […] J. Biol. Chem. […]:7124–7130. • 364100. Page, B., Page, M. and Noel, C. (1993) A new fluorometric assay for cytotoxicity measurements in vitro. Int. J. Oncology 3:473–476, 1993.

[7] = system: alpha or beta adrenergic, muscarinic, histaminergic, and dopaminergic receptors; settings: cited from earlier work
[8] = molecular target: uptake of dopamine (Homo sapiens, UniProt Q01959); settings: cited from earlier work
Chain of uptake of dopamine (Q01959 whole entry): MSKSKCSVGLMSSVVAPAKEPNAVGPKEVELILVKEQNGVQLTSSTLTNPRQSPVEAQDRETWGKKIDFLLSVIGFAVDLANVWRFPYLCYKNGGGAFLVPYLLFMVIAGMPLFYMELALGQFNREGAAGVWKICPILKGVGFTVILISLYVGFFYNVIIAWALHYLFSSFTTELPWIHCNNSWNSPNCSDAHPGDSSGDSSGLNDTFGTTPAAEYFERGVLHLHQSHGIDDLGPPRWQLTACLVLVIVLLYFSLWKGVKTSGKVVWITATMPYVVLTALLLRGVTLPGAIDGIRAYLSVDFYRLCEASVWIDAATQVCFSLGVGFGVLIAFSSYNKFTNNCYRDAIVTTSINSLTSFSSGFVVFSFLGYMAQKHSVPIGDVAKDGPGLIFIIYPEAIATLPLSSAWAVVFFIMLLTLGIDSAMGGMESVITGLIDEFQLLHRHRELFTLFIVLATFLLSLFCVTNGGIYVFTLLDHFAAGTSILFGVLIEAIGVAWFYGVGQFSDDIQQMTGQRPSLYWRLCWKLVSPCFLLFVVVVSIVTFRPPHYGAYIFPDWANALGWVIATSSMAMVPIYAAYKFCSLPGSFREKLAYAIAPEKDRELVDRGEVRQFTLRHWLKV

[9] = system: beta adrenoceptors; settings: after chronic administration; Briley et al. 1996; cited from earlier work
[10] = system: norepinephrine (NE) and serotonin (5-HT) uptake; settings: Viazzo et al. 1996; Deprez et al. 1998; cited from earlier work
[11] = molecular target: T1, Norepinephrine Transporter (NET); settings: radioligand [125I] RTI-55; Human recombinant MDCK cells; historical value (*); cited from earlier work
[12] = molecular target: T2, Serotonin Transporter (SERT); settings: radioligand [125I] RTI-55; Human recombinant HEK-293 cells; historical value (*); cited from earlier work

Chain of Serotonin Uptake (P31645 whole entry): as the sequence (P31645 whole entry) above

Structure (SMILES)	IC50 [1] [µM]	Ki [2] [µM]	IC50 [4] [µM]	Ki [5] [µM]	cytotoxicity [6]	other results
CCN(CC)C(=O)C1(c2ccc(O)cc2)CC1CN (racemic) [CS1814, racemic 2-Aminomethyl-1-(4-hydroxy-phenyl)-cyclopropanecarboxylic acid diethyl amide]	0.0217	0.218	0.0286	0.00673	no cytotoxicity was observed	IC50 ([2]; radioligand binding, FIG. 59, read-out: IC50 for inhibition of norepinephrine transporter): 0.22 µM; binding to other receptors [3]: generally does not bind well to other receptors; potency of inhibition of norepinephrine uptake compared to inhibition of serotonin uptake [4]: approximately equal potency; IC50 ([5]; radioligand binding, FIG. 59, read-out: IC50 for inhibition of serotonin transporter): 0.0127 µM
CCN(CC)C(=O)[C@@]1(c2ccccc2)C[C@H]1CN (racemic) [Milnacipran, milnacipran]						affinity for alpha or beta adrenergic, muscarinic, histaminergic, and dopaminergic receptors [7]: no affinity; effect on the uptake of dopamine [8]: does not affect the uptake of dopamine; effect on the number of beta adrenoceptors in rat cortex [9]: does not affect the number of beta adrenoceptors
CCN(CC)C(=O)[C@@]1(c2ccc(O)cc2)C[C@H]1CN [CS1713, 1S, 2R 2-Aminomethyl-1-(4-hydroxy-phenyl)-cyclopropanecarboxylic acid diethyl amide]	0.022	0.112	0.0103	0.00388	no cytotoxicity was observed	potency of inhibition of norepinephrine uptake compared to inhibition of serotonin uptake [4]: approximately two-fold
CCN(CC)C(=O)[C@]1(c2ccc(O)cc2)C[C@@H]1CN.Cl [CS1714, 1R, 2S 2-Aminomethyl-1-(4-hydroxy-phenyl)-cyclopropanecarboxylic acid diethyl amide]	0.0403	1.68	0.0885	0.00815	no cytotoxicity was observed	potency of inhibition of serotonin uptake compared to inhibition of norepinephrine uptake [1]: approximately two-fold
CCN(CC)C(=O)[C@@]1(c2ccccc2)C[C@H]1CN [F2695, (+)-1S,2R-milnacipran]						activity in inhibiting norepinephrine and serotonin reuptake compared with the racemic mixture [10]: roughly twice
CCN(CC)C(=O)[C@]1(c2ccccc2)C[C@@H]1CN [F2696, (−)-1R,2S-milnacipran]						activity in inhibiting norepinephrine and serotonin reuptake compared with the racemic mixture [10]: much less potent
COC(=O)[C@H]1[C@@H](c2ccc(I)cc2)C[C@@H]2CC[C@H]1N2C [[^125I] RTI-55]						Kd [11]: 0.024 µM; Kd [12]: 0.00017 µM

Source: patent publication US7038085B2, “Stereoisomers of p-hydroxy-milnacipran, and methods of use thereof” (Collegium Pharmaceutical, Inc., priority 2002, dated 2006)
